Patent US20210277020A1, “HETEROCYCLIC COMPOUNDS AS MONOACYLGLYCEROL LIPASE INHIBITORS” (Hoffmann-La Roche Inc., priority 2018, published 2021)
pIC50: −log10 of the molar value.

Columns and labels:
[1] = molecular target: T1, MAGL (recombinant wild-type) (Homo sapiens, UniProt Q99685); experiment: 4-NPA assay: MAGL inhibition followed by hydrolysis of 4-nitrophenylacetate, absorbance at 405 nm; type: biochemical; conditions: measured in 4-NPA assay (footnote [b]); 1 nM MAGL, 300 μM 4-nitrophenylacetate
T1 sequence (Q99685 1-303): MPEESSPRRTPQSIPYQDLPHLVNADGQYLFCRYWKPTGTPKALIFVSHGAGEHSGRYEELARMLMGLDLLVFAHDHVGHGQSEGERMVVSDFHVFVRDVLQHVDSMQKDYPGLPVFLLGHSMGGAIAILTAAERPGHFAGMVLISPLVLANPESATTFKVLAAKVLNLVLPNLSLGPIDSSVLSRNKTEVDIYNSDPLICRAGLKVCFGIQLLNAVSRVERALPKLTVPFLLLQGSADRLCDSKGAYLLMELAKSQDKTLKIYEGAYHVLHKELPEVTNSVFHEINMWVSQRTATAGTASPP
Experimental: Compounds were profiled for MAGL inhibitory activity by measuring the enzymatic activity of MAGL by following the hydrolysis of 4-nitrophenylacetate resulting in 4-nitrophenol, which absorbs at 405-412 nm (G. G. Muccioli, G. Labar, D. M. Lambert, Chem. Bio. Chem. 2008, 9, 2704-2710). This assay is hereinafter abbreviated “4-NPA assay”.
The 4-NPA assay was carried out in 384 well assay plates (black with clear bottom, non-binding surface treated, Corning Ref. 3655) in a total volume of 40 μL. Compound dilutions were made in 100% DMSO (VWR Chemicals 23500.297) in a polypropylene plate in 3-fold dilution steps to give a final concentration range in the assay from 25 μM to 1.7 nM. 1 μL compound dilutions (100% DMSO) were added to 19 μL MAGL (recombinant wild-type) in assay buffer (50 mM TRIS (GIBCO, 15567-027), 1 mM EDTA (Fluka, 03690-100 mL)). The plate was shaked for 1 min at 2000 rpm (Variomag Teleshake) and then incubated for 15 min at RT. To start the reaction, 20 μL 4-Nitrophenlyacetate (Sigma N-8130) in assay buffer with 6% EtOH was added. The final concentrations in the assay were 1 nM MAGL and 300 μM 4-Nitrophenylacetate. After shaking (1 min, 2000 rpm) and 5 min incubation at RT, the absorbance at 405 nm was measured for a fist time (Molecular Devices, SpectraMax Paradigm). A second measurement was then done after incubation for 80 min at RT. From the two measurements, the slope was calculated by subtracting the first from the second measurement.

[2] = molecular target: T2, MAGL (Homo sapiens, UniProt Q99685); experiment: 2-AG assay: MAGL inhibition followed by hydrolysis of 2-arachidonoylglycerol to arachidonic acid, mass spectrometry; type: biochemical; conditions: measured in 2-AG assay (footnote [a]); substrate 2-arachidonoylglycerol 8 μM, 30 min at RT
T2 sequence (Q99685 1-303): T1 sequence (Q99685 1-303)
In short: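 Test compounds (final […], 3-fold steps) preincubated 15 min at RT with […] in 50 mM Tris, 1 mM EDTA, 0.01% Tween; 8 μM 2-arachidonoylglycerol then added for 30 min at RT. Acetonitrile quench; arachidonic acid measured by RapidFire SPE–MS/MS, activity from arachidonic acid/d8-arachidonic acid ratio.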

pIC50 [1] | pIC50 [2] | SMILES
5.36 |  | O=C1CO[C@H]2CCN(C(=O)N3CCC(C(=O)N(CCO)Cc4ccccc4)CC3)C[C@H]2N1 [Example 63, N-Benzyl-N-(2-hydroxyethyl)-1-((4aR,8aS)-3-oxooctahydro-2H-pyrido[4,3-b][1,4]oxazine-6-carbonyl)piperidine-4-carboxamide]
5.54 |  | O=C1CO[C@H]2CCN(C(=O)N3CCC(C(=O)NCc4ccccc4)CC3)C[C@H]2N1 [Example 65, N-Benzyl-1-((4aR,8aS)-3-oxooctahydro-2H-pyrido[4,3-b][1,4]oxazine-6-carbonyl)piperidine-4-carboxamide]
5.70 |  | CN(C(=O)c1ccc(C(F)(F)F)cc1)C1CCN(C(=O)N2CC[C@@H]3OCC(=O)N[C@@H]3C2)CC1 [Example 85, N-[1-[(4aR,8aS)-3-oxo-4,4a,5,7,8,8a-hexahydropyrido[4,3-b][1,4]oxazine-6-carbonyl]piperidin-4-yl]-N-methyl-4-(trifluoromethyl)benzamide]
6.28 |  | CN(C(=O)Cc1cccc(C(F)(F)F)c1)C1CCN(C(=O)N2CC[C@@H]3OCC(=O)N[C@@H]3C2)CC1 [Example 86, N-[1-[(4aR,8aS)-3-oxo-4,4a,5,7,8,8a-hexahydropyrido[4,3-b][1,4]oxazine-6-carbonyl]piperidin-4-yl]-N-methyl-2-[3-(trifluoromethyl)phenyl]acetamide]
 | 7.64 | O=C1CO[C@H]2CCN(C(=O)N3CC(SCc4c(F)cccc4C(F)(F)F)C3)C[C@H]2N1 [Example 295, (4aR,8aS)-6-(3-((2-Fluoro-6-(trifluoromethyl)benzyl)thio)azetidine-1-carbonyl)hexahydro-2H-pyrido[4,3-b][1,4]oxazin-3(4H)-one]
